Where two headings read alike, the source gives them in different places. Where a SMILES comes first, the peptide text is derived from it.
Experiments:
human GLP-1 receptor = target: T1, human GLP-1 receptor (Homo sapiens, UniProt P43220); test: GLP-1 receptor potency assay (cAMP ALPHASCREEN, HEK293 cells stably expressing GLP-1 R); type: cell-based; conditions: cAMP response, HEK293 cells expressing human GLP-1 R
T1 construct: expressed in transfected cells
Excerpt: One useful in vitro assay for measuring GLP-1 and GLP-2 receptor activity is quantitation of cAMP, i.e. 3′-5′-cyclic adenosine monophosphate, which is a second messenger essential in many biological processes, and one of the most ubiquitous mechanisms for regulating cellular functions.
The cDNA encoding the human glucagon-like peptide 1 receptor (GLP-1 R) (primary accession number P43220) was cloned from the cDNA BC112126 (MGC:138331/IMAGE:8327594). The DNA encoding the GLP-1-R was amplified by PCR using primers encoding terminal restriction sites for subcloning. The 5′-end primers additionally encoded a near Kozak consensus sequence to ensure efficient translation. […] The PCR products encoding the GLP-1-R were subcloned into a mammalian expression vector containing a neomycin (G418) resistance marker. The mammalian expression vectors encoding the GLP-1-R were transfected into HEK293 cells by a standard calcium phosphate transfection method. 48 hours post-transfection, cells were seeded for limited dilution cloning and selected with 1 mg/ml G418 in the culture medium. Following 3 weeks in G418 selection clones were picked and tested in a functional GLP-1 receptor potency assay as described below.
The cAMP ALPHASCREEN® assay from Perkin Elmer was used to quantitate the cAMP response to activation of the GLP1 and GLP2 receptor, respectively. […] Data from test compounds eliciting an increase in the intracellular level of cAMP were normalized relative to the positive and negative control (vehicle) to calculate the EC50 and maximal response from the concentration response curve.

human GLP-2 receptor = target: T2, human GLP-2 receptor (Homo sapiens, UniProt O95838, D470N); test: GLP-2 receptor potency assay (cAMP ALPHASCREEN, HEK293 cells stably expressing GLP-2 R); type: cell-based; conditions: cAMP response, HEK293 cells expressing human GLP-2 R; read-out: EC50 GLP-2
T2 construct: expressed in transfected cells
T2 sequence (O95838 1-553 D470N): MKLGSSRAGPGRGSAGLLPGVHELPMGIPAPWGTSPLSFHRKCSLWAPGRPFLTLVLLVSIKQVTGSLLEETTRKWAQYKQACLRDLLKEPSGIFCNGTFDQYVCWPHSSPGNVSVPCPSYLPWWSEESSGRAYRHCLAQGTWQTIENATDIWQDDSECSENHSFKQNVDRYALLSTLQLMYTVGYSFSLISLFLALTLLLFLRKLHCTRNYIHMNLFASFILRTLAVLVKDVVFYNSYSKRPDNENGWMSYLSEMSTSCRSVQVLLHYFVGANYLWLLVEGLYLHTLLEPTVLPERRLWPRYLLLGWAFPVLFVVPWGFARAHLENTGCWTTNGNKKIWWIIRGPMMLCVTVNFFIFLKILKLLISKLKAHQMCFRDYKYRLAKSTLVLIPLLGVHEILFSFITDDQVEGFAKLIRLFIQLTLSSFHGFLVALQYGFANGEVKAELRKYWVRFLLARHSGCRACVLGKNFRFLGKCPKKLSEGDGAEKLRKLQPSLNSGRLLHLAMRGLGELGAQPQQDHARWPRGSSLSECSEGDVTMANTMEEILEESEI
Summary of the method: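 HEK293 clones stably transfected with the human GLP-2 receptor, selected with G418, were used. Intracellular cAMP was quantified by AlphaScreen. Responses were normalised to positive and vehicle controls, and EC50 and maximal response were taken from concentration-response curves.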

[1] = Solubility assessment (turbidity absorbance at 325 nm); type: physicochemical
Summary of the method: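 Peptide stock at 2 mg/ml in water at pH 2.5 diluted 1:1 into 100 mM acetate (pH 4.0, 5.0), histidine (pH 6.0, 7.0) or phosphate (pH 6.0, 7.0, 7.5) buffer. Absorbance at 280 and 325 nm read at ambient temperature (typically 25 °C), single samples (n=1).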

[2] = Chemical stability (RP-HPLC normalized purity after incubation at 40° C.); type: physicochemical; conditions: 14-day incubation, 0.2 mg/ml, normalized purity (area-%); for pH 6 normalized stability: pH 6, 40° C.; for pH 7 normalized stability: pH 7, 40° C.
Summary of the method: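 Peptide at 0.2 mg/ml final in water adjusted to pH 6, 7, 7.5 or 9, incubated at 40° C for 14 days. Purity measured as main-peak area-% by C18 RP-HPLC (acetonitrile/TFA/water gradient, UV 220 nm) and normalized to T=0 set at 100 for each pH.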

[3] = 100 mM acetate buffer pH 4.0, ambient temperature, read-out: Solubility Acetate buffer pH 4
[4] = 100 mM acetate buffer pH 5.0, ambient temperature, read-out: Solubility Acetate buffer pH 5
[5] = 100 mM histidine buffer pH 6.0, ambient temperature, read-out: Solubility Histidine buffer pH 6
[6] = 100 mM histidine buffer pH 7.0, ambient temperature, read-out: Solubility Histidine buffer pH 7
[7] = 100 mM phosphate buffer pH 6.0, ambient temperature, read-out: Solubility Phosphate buffer pH 6
[8] = 100 mM phosphate buffer pH 7.0, ambient temperature, read-out: Solubility Phosphate buffer pH 7
[9] = 100 mM phosphate buffer pH 7.5, ambient temperature, read-out: Solubility Phosphate buffer pH 7.5

T1 sequence (P43220 24-463): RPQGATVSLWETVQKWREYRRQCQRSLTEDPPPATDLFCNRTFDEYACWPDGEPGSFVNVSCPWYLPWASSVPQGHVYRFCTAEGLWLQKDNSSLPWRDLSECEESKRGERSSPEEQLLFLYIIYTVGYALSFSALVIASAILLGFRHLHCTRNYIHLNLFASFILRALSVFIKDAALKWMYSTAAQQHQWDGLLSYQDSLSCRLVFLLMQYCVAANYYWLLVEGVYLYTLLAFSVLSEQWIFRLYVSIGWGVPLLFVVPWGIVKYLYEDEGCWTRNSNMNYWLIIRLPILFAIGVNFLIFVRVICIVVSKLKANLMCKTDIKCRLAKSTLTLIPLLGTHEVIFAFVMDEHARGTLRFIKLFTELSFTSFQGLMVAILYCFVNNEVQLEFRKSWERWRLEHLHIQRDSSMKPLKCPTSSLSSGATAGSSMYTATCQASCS

Structure (SMILES)	EC50 (human GLP-1 receptor) [nM]	EC50 (human GLP-2 receptor) [nM]	solubility [1, 3] [µg/mL]	solubility [1, 4] [µg/mL]	solubility [1, 5] [µg/mL]	solubility [1, 6] [µg/mL]	solubility [1, 7] [µg/mL]	solubility [1, 8] [µg/mL]	solubility [1, 9] [µg/mL]	pH 6 normalized stability [2]	pH 7 normalized stability [2]
CC[C@H](C)[C@H](NC(=O)[C@H](CC(C)C)NC(=O)[C@H](Cc1c[nH]c2ccccc12)NC(=O)[C@H](C)NC(=O)[C@@H](NC(=O)[C@H](Cc1ccccc1)NC(=O)[C@H](CC(=O)O)NC(=O)[C@H](CCCNC(=N)N)NC(=O)[C@H](C)NC(=O)[C@H](C)NC(=O)[C@H](CCC(N)=O)NC(=O)[C@H](CCC(=O)O)NC(=O)[C@H](CC(=O)O)NC(=O)[C@H](CC(C)C)NC(=O)[C@@H](NC(=O)[C@@H](NC(=O)[C@H](C)NC(=O)[C@H](CC(C)C)NC(=O)[C@H](CCC(=O)O)NC(=O)[C@H](CO)NC(=O)[C@H](CO)NC(=O)[C@H](Cc1ccccc1)NC(=O)[C@@H](NC(=O)CNC(=O)[C@H](CCC(=O)O)NC(=O)C(C)(C)NC(=O)[C@@H](N)Cc1c[nH]cn1)[C@@H](C)O)[C@@H](C)O)[C@@H](C)CC)[C@@H](C)CC)C(=O)N[C@@H](C)C(=O)N[C@@H](Cc1c[nH]cn1)C(=O)N[C@@H](CCCCN)C(=O)N[C@H](C(=O)N[C@H](C(=O)N[C@@H](CC(=O)O)C(=O)N[C@H](CCCCN)C(=O)N[C@H](CCCCN)C(=O)N[C@H](CCCCN)C(=O)N[C@H](CCCCN)C(=O)N[C@H](CCCCN)C(=O)N[C@H](CCCCNC(=O)CC[C@H](NC(=O)CCCCCCCCCCCCCCCCC(=O)O)C(=O)O)C(N)=O)[C@@H](C)O)[C@@H](C)CC [Compound 38] (HELM PEPTIDE1{H.[Aib].E.G.T.F.S.S.E.L.A.T.I.L.D.E.Q.A.A.R.D.F.I.A.W.L.I.A.H.K.I.T.D.[dK].[dK].[dK].[dK].[dK].[dK].[am]}|PEPTIDE2{[O=C(O)CCCCCCCCCCCCCCCCC(=O)[*:2]].[gGlu]}$PEPTIDE1,PEPTIDE2,39:R3-2:R2$$$V2.0)	0.25	–	–	–	–	–	–	–	–	–	–
CC[C@H](C)[C@H](NC(=O)[C@H](Cc1ccccc1)NC(=O)[C@H](CC(=O)O)NC(=O)[C@H](CCCNC(=N)N)NC(=O)[C@H](C)NC(=O)[C@H](C)NC(=O)[C@H](CCC(N)=O)NC(=O)[C@H](CCCCNC(=O)COCCOCCNC(=O)[C@H](CCCCN)NC(=O)[C@H](CCC(=O)O)NC(=O)[C@H](CCCCN)NC(=O)CC[C@H](NC(=O)CCCCCCCCCCCCCCCCCCC(=O)O)C(=O)O)NC(=O)[C@H](CC(=O)O)NC(=O)[C@H](CC(C)C)NC(=O)[C@@H](NC(=O)[C@@H](NC(=O)[C@H](C)NC(=O)[C@H](CC(C)C)NC(=O)[C@H](CCC(=O)O)NC(=O)[C@H](CO)NC(=O)[C@@H](NC(=O)[C@H](Cc1ccccc1)NC(=O)[C@@H](NC(=O)CNC(=O)[C@H](CCC(=O)O)NC(=O)C(C)(C)NC(=O)[C@@H](N)Cc1c[nH]cn1)[C@@H](C)O)[C@@H](C)O)[C@@H](C)O)[C@@H](C)CC)C(=O)N[C@@H](C)C(=O)N[C@@H](Cc1c[nH]c2ccccc12)C(=O)N[C@@H](CC(C)C)C(=O)N[C@H](C(=O)N[C@@H](CCC(N)=O)C(=O)N[C@@H](Cc1c[nH]cn1)C(=O)N[C@@H](CCCCN)C(=O)N[C@H](C(=O)N[C@H](C(=O)N[C@@H](CC(=O)O)C(=O)O)[C@@H](C)O)[C@@H](C)CC)[C@@H](C)CC [Compound 52] (HELM PEPTIDE1{H.[Aib].E.G.T.F.T.S.E.L.A.T.I.L.D.K.Q.A.A.R.D.F.I.A.W.L.I.Q.H.K.I.T.D}|PEPTIDE2{[O=C(O)CCCCCCCCCCCCCCCCCCC(=O)[*:2]].[gGlu].K.E.K.[O=C(COCCOCCN[*:1])[*:2]]}$PEPTIDE1,PEPTIDE2,16:R3-6:R2$$$V2.0)	0.02	–	–	–	–	–	–	–	–	–	–
CC[C@H](C)[C@H](NC(=O)[C@H](CC(C)C)NC(=O)[C@H](Cc1c[nH]c2ccccc12)NC(=O)[C@H](C)NC(=O)[C@@H](NC(=O)[C@H](Cc1ccccc1)NC(=O)[C@H](CC(=O)O)NC(=O)[C@H](CCCNC(=N)N)NC(=O)[C@H](C)NC(=O)[C@H](C)NC(=O)[C@H](CCC(N)=O)NC(=O)[C@H](CCCCNC(=O)CC[C@H](NC(=O)CCCCCCCCCCCCCCCCC(=O)O)C(=O)O)NC(=O)[C@H](CC(=O)O)NC(=O)[C@H](CC(C)C)NC(=O)[C@@H](NC(=O)[C@@H](NC(=O)[C@H](C)NC(=O)[C@H](CC(C)C)NC(=O)[C@H](CCC(=O)O)NC(=O)[C@H](CO)NC(=O)[C@@H](NC(=O)[C@H](Cc1ccccc1)NC(=O)[C@H](CO)NC(=O)CNC(=O)[C@H](CCC(=O)O)NC(=O)C(C)(C)NC(=O)[C@@H](N)Cc1c[nH]cn1)[C@@H](C)O)[C@@H](C)O)[C@@H](C)CC)[C@@H](C)CC)C(=O)N[C@@H](C)C(=O)N[C@@H](Cc1c[nH]cn1)C(=O)N[C@@H](CCCCN)C(=O)N[C@H](C(=O)N[C@H](C(=O)N[C@@H](CC(=O)O)C(=O)O)[C@@H](C)O)[C@@H](C)CC [Compound 22] (HELM PEPTIDE1{H.[Aib].E.G.S.F.T.S.E.L.A.T.I.L.D.K.Q.A.A.R.D.F.I.A.W.L.I.A.H.K.I.T.D}|PEPTIDE2{[O=C(O)CCCCCCCCCCCCCCCCC(=O)[*:2]].[gGlu]}$PEPTIDE1,PEPTIDE2,16:R3-2:R2$$$V2.0)	–	0.2	< 1000	< 1000	≥ 1000	≥ 1000	≥ 1000	≥ 1000	≥ 1000	A (>90% normalised stability)	B (>80% stability)
CC[C@H](C)[C@H](NC(=O)[C@H](Cc1ccccc1)NC(=O)[C@H](CC(=O)O)NC(=O)[C@H](CCCNC(=N)N)NC(=O)[C@H](C)NC(=O)[C@H](C)NC(=O)[C@H](CCC(N)=O)NC(=O)[C@H](CCCCNC(=O)CC[C@H](NC(=O)CCCCCCCCCCCCCCCCC(=O)O)C(=O)O)NC(=O)[C@H](CC(=O)O)NC(=O)[C@H](CC(C)C)NC(=O)[C@@H](NC(=O)[C@@H](NC(=O)[C@H](C)NC(=O)[C@H](CC(C)C)NC(=O)[C@H](CCC(=O)O)NC(=O)[C@H](CO)NC(=O)[C@@H](NC(=O)[C@H](Cc1ccccc1)NC(=O)[C@H](CO)NC(=O)CNC(=O)[C@H](CCC(=O)O)NC(=O)C(C)(C)NC(=O)[C@@H](N)Cc1c[nH]cn1)[C@@H](C)O)[C@@H](C)O)[C@@H](C)CC)C(=O)N[C@@H](C)C(=O)N[C@@H](Cc1c[nH]c2ccccc12)C(=O)N[C@@H](CC(C)C)C(=O)N[C@H](C(=O)N[C@@H](CCC(=O)O)C(=O)N[C@@H](Cc1c[nH]cn1)C(=O)N[C@@H](CCCCN)C(=O)N[C@H](C(=O)N[C@H](C(=O)N[C@@H](CC(=O)O)C(=O)O)[C@@H](C)O)[C@@H](C)CC)[C@@H](C)CC [Compound 24] (HELM PEPTIDE1{H.[Aib].E.G.S.F.T.S.E.L.A.T.I.L.D.K.Q.A.A.R.D.F.I.A.W.L.I.E.H.K.I.T.D}|PEPTIDE2{[O=C(O)CCCCCCCCCCCCCCCCC(=O)[*:2]].[gGlu]}$PEPTIDE1,PEPTIDE2,16:R3-2:R2$$$V2.0)	–	0.17	< 1000	< 1000	≥ 1000	≥ 1000	≥ 1000	≥ 1000	≥ 1000	B (>80% stability)	A (>90% normalised stability)

— patent publication US11395847B2, “Acylated GLP-1/GLP-2 dual agonists” (Zealand Pharma A/S, priority 2016, dated 2022)
